tested on: CAOV3; test: drug sensitivity score (DSS) from 5-point dose-response viability curve (DSS (area-under-curve based score)); higher = more sensitive (stronger growth inhibition or killing); extreme values may be limits of the assay; settings: exposure time: 72 h; concentration range: 5 concentrations over 10,000-fold range
Procedure, shortened: (§1)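 Ovarian cancer and normal ovarian cell lines were tested in 384-well plates. Drugs were acoustically dispensed (Echo 550) in DMSO or water at five concentrations spanning a 10,000-fold range, then 1,500 cells per well were added and incubated 3 days at 37°C, 5% CO2. Viability was read by CellTiter-Glo luminescence on a PHERAstar FS. Drug sensitivity score was derived per cell line and drug with Breeze software; higher means more sensitive, zero means no response.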

Compound | drug sensitivity score
COc1cc(CCc2cc(NC(=O)c3ccc(N4CC(C)NC(C)C4)cc3)n[nH]2)cc(OC)c1 (centres undefined) [AZD4547] | 0
CN(C)C(=O)c1ccc(S(=O)(=O)c2ccc(NC(=O)[C@@](C)(O)C(F)(F)F)c(Cl)c2)cc1 [AZD7545] | 1.1
NC(=O)Nc1cc(-c2cccc(F)c2)sc1C(=O)N[C@H]1CCCNC1 [AZD7762] | 6.1
COc1ccc(-c2ccc3c(N4CCOC[C@@H]4C)nc(N4CCOC[C@@H]4C)nc3n2)cc1CO [AZD8055] | 15.6
N#Cc1ccc2[nH]c(O)c(-c3ccc(CN4CCOCC4)cn3)c2c1 [AZD-1080] | 0.9
Cc1ncc(-c2ccnc(Nc3ccc(S(C)(=O)=O)cc3)n2)n1C(C)C [AZD-5438] | 4.4
Cc1cc([C@@H](C)Nc2ccccc2C(=O)O)c2nc(N3CCOCC3)cc(=O)n2c1 [AZD-6482] | 2.3
C[C@@H](Nc1cc(F)cc(F)c1)c1cc(C(=O)N(C)C)cc2c(=O)cc(N3CCOCC3)oc12 [AZD-8186] | 2.1
CCN1CCN(Cc2ccc(Nc3ncc(F)c(-c4cc(F)c5nc(C)n(C(C)C)c5c4)n3)nc2)CC1 [Abemaciclib] | 0.4
CN(C)Cc1c(C(=O)NCCOc2ccc(C(=O)NO)cc2)oc2ccccc12 [Abexinostat] | 13.7
C[C@]12CC[C@H](O)CC1=CC[C@@H]1[C@@H]2CC[C@]2(C)C(c3cccnc3)=CC[C@@H]12 [Abiraterone] | 0
CC#CC(=O)N1CCC[C@H]1c1nc(-c2ccc(C(=O)Nc3ccccn3)cc2)c2c(N)nccn12 [Acalabrutinib] | 0
COc1cc(C)c(/C=C/C(C)=C/C=C/C(C)=C/C(=O)O)c(C)c1C [Acitretin] | 0
CN(C)C/C=C/C(=O)Nc1cc2c(Nc3ccc(F)c(Cl)c3)ncnc2cc1O[C@H]1CCOC1 [Afatinib] | 8.2
Cn1ncc(Cl)c1-c1cc(C(=O)N[C@H](CN)Cc2cccc(F)c2)sc1Cl [Afuresertib] | 0.8
COc1cccc2c1C(=O)c1c(O)c3c(c(O)c1C2=O)C[C@@](O)(/C(CO)=N/NC(=O)CCCCCN1C(=O)C=CC1=O)C[C@@H]3O[C@H]1C[C@H](N)[C@H](O)[C@H](C)O1 [Aldoxorubicin] | 9.2
CCc1cc2c(cc1N1CCC(N3CCOCC3)CC1)C(C)(C)c1[nH]c3cc(C#N)ccc3c1C2=O [Alectinib] | 0
COc1cc(Nc2ncc3c(n2)-c2ccc(Cl)cc2C(c2c(F)cccc2OC)=NC3)ccc1C(=O)O [Alisertib] | 22.5
Oc1ncnc2[nH]ncc12 [Allopurinol] | 0
Cc1nc(NC(=O)N2CCC[C@H]2C(N)=O)sc1-c1ccnc(C(C)(C)C(F)(F)F)c1 [Alpelisib] | 3.7
O=C(Nc1cc(Oc2cc(F)c(NC(=O)C3(C(=O)Nc4ccc(F)cc4)CC3)cc2F)ccn1)C1CC1 [Altiratinib] | 2.7
CN1CC[C@H](c2c(O)cc(O)c3c(=O)cc(-c4ccccc4Cl)oc23)[C@H](O)C1 [Alvocidib] | 14.9
CCN(CC)CCNC(=O)c1c(C)[nH]c(/C=C2\C(=O)Nc3ccc(-c4csc(-c5ccccc5)n4)cc32)c1C [Amcasertib] | 0
CCC1(c2ccc(N)cc2)CCC(=O)NC1=O (centres undefined) [Aminoglutethimide] | 0.2
COc1cc(NS(C)(=O)=O)ccc1Nc1c2ccccc2nc2ccccc12 [Amsacrine] | 13.7
S=C(NCc1ccc2c(c1)OCO2)N1CCN(c2ncnc3c2oc2ccccc23)CC1 [Amuvatinib] | 2.1
O=C1CN2Cc3c(ccc(Cl)c3Cl)N=C2N1 [Anagrelide] | 0
CC(C)(C#N)c1cc(Cn2cncn2)cc(C(C)(C)C#N)c1 [Anastrozole] | 0

tested on: COV318; test: as above; settings: exposure time: 72 h; concentration range: 5 concentrations over 10,000-fold range
Procedure, shortened: as §1

Compound | drug sensitivity score
COc1cc(CCc2cc(NC(=O)c3ccc(N4CC(C)NC(C)C4)cc3)n[nH]2)cc(OC)c1 (centres undefined) [AZD4547] | 0
CN(C)C(=O)c1ccc(S(=O)(=O)c2ccc(NC(=O)[C@@](C)(O)C(F)(F)F)c(Cl)c2)cc1 [AZD7545] | 0
NC(=O)Nc1cc(-c2cccc(F)c2)sc1C(=O)N[C@H]1CCCNC1 [AZD7762] | 5
COc1ccc(-c2ccc3c(N4CCOC[C@@H]4C)nc(N4CCOC[C@@H]4C)nc3n2)cc1CO [AZD8055] | 13.6
N#Cc1ccc2[nH]c(O)c(-c3ccc(CN4CCOCC4)cn3)c2c1 [AZD-1080] | 0
Cc1ncc(-c2ccnc(Nc3ccc(S(C)(=O)=O)cc3)n2)n1C(C)C [AZD-5438] | 2.9
Cc1cc([C@@H](C)Nc2ccccc2C(=O)O)c2nc(N3CCOCC3)cc(=O)n2c1 [AZD-6482] | 0.1
C[C@@H](Nc1cc(F)cc(F)c1)c1cc(C(=O)N(C)C)cc2c(=O)cc(N3CCOCC3)oc12 [AZD-8186] | 0.7
CCN1CCN(Cc2ccc(Nc3ncc(F)c(-c4cc(F)c5nc(C)n(C(C)C)c5c4)n3)nc2)CC1 [Abemaciclib] | 1
CN(C)Cc1c(C(=O)NCCOc2ccc(C(=O)NO)cc2)oc2ccccc12 [Abexinostat] | 10.1
C[C@]12CC[C@H](O)CC1=CC[C@@H]1[C@@H]2CC[C@]2(C)C(c3cccnc3)=CC[C@@H]12 [Abiraterone] | 0
CC#CC(=O)N1CCC[C@H]1c1nc(-c2ccc(C(=O)Nc3ccccn3)cc2)c2c(N)nccn12 [Acalabrutinib] | 3.5
COc1cc(C)c(/C=C/C(C)=C/C=C/C(C)=C/C(=O)O)c(C)c1C [Acitretin] | 0
CN(C)C/C=C/C(=O)Nc1cc2c(Nc3ccc(F)c(Cl)c3)ncnc2cc1O[C@H]1CCOC1 [Afatinib] | 0
Cn1ncc(Cl)c1-c1cc(C(=O)N[C@H](CN)Cc2cccc(F)c2)sc1Cl [Afuresertib] | 1.8
COc1cccc2c1C(=O)c1c(O)c3c(c(O)c1C2=O)C[C@@](O)(/C(CO)=N/NC(=O)CCCCCN1C(=O)C=CC1=O)C[C@@H]3O[C@H]1C[C@H](N)[C@H](O)[C@H](C)O1 [Aldoxorubicin] | 3.8
CCc1cc2c(cc1N1CCC(N3CCOCC3)CC1)C(C)(C)c1[nH]c3cc(C#N)ccc3c1C2=O [Alectinib] | 0
COc1cc(Nc2ncc3c(n2)-c2ccc(Cl)cc2C(c2c(F)cccc2OC)=NC3)ccc1C(=O)O [Alisertib] | 1.9
Oc1ncnc2[nH]ncc12 [Allopurinol] | 0
Cc1nc(NC(=O)N2CCC[C@H]2C(N)=O)sc1-c1ccnc(C(C)(C)C(F)(F)F)c1 [Alpelisib] | 0.5
O=C(Nc1cc(Oc2cc(F)c(NC(=O)C3(C(=O)Nc4ccc(F)cc4)CC3)cc2F)ccn1)C1CC1 [Altiratinib] | 1.7
CN1CC[C@H](c2c(O)cc(O)c3c(=O)cc(-c4ccccc4Cl)oc23)[C@H](O)C1 [Alvocidib] | 11.5
CCN(CC)CCNC(=O)c1c(C)[nH]c(/C=C2\C(=O)Nc3ccc(-c4csc(-c5ccccc5)n4)cc32)c1C [Amcasertib] | 8.8
CCC1(c2ccc(N)cc2)CCC(=O)NC1=O (centres undefined) [Aminoglutethimide] | 0
COc1cc(NS(C)(=O)=O)ccc1Nc1c2ccccc2nc2ccccc12 [Amsacrine] | 0.6
S=C(NCc1ccc2c(c1)OCO2)N1CCN(c2ncnc3c2oc2ccccc23)CC1 [Amuvatinib] | 0.1
O=C1CN2Cc3c(ccc(Cl)c3Cl)N=C2N1 [Anagrelide] | 0
CC(C)(C#N)c1cc(Cn2cncn2)cc(C(C)(C)C#N)c1 [Anastrozole] | 0

tested on: COV362; test: as above; settings: exposure time: 72 h; concentration range: 5 concentrations over 10,000-fold range
Procedure, shortened: as §1

Compound | drug sensitivity score
COc1cc(CCc2cc(NC(=O)c3ccc(N4CC(C)NC(C)C4)cc3)n[nH]2)cc(OC)c1 (centres undefined) [AZD4547] | 0
CN(C)C(=O)c1ccc(S(=O)(=O)c2ccc(NC(=O)[C@@](C)(O)C(F)(F)F)c(Cl)c2)cc1 [AZD7545] | 0
NC(=O)Nc1cc(-c2cccc(F)c2)sc1C(=O)N[C@H]1CCCNC1 [AZD7762] | 7
COc1ccc(-c2ccc3c(N4CCOC[C@@H]4C)nc(N4CCOC[C@@H]4C)nc3n2)cc1CO [AZD8055] | 6.4
N#Cc1ccc2[nH]c(O)c(-c3ccc(CN4CCOCC4)cn3)c2c1 [AZD-1080] | 0
Cc1ncc(-c2ccnc(Nc3ccc(S(C)(=O)=O)cc3)n2)n1C(C)C [AZD-5438] | 2.8
Cc1cc([C@@H](C)Nc2ccccc2C(=O)O)c2nc(N3CCOCC3)cc(=O)n2c1 [AZD-6482] | 0
C[C@@H](Nc1cc(F)cc(F)c1)c1cc(C(=O)N(C)C)cc2c(=O)cc(N3CCOCC3)oc12 [AZD-8186] | 0
CCN1CCN(Cc2ccc(Nc3ncc(F)c(-c4cc(F)c5nc(C)n(C(C)C)c5c4)n3)nc2)CC1 [Abemaciclib] | 1.5
CN(C)Cc1c(C(=O)NCCOc2ccc(C(=O)NO)cc2)oc2ccccc12 [Abexinostat] | 5.6
C[C@]12CC[C@H](O)CC1=CC[C@@H]1[C@@H]2CC[C@]2(C)C(c3cccnc3)=CC[C@@H]12 [Abiraterone] | 0
CC#CC(=O)N1CCC[C@H]1c1nc(-c2ccc(C(=O)Nc3ccccn3)cc2)c2c(N)nccn12 [Acalabrutinib] | 0.3
COc1cc(C)c(/C=C/C(C)=C/C=C/C(C)=C/C(=O)O)c(C)c1C [Acitretin] | 0
CN(C)C/C=C/C(=O)Nc1cc2c(Nc3ccc(F)c(Cl)c3)ncnc2cc1O[C@H]1CCOC1 [Afatinib] | 1.3
Cn1ncc(Cl)c1-c1cc(C(=O)N[C@H](CN)Cc2cccc(F)c2)sc1Cl [Afuresertib] | 0
COc1cccc2c1C(=O)c1c(O)c3c(c(O)c1C2=O)C[C@@](O)(/C(CO)=N/NC(=O)CCCCCN1C(=O)C=CC1=O)C[C@@H]3O[C@H]1C[C@H](N)[C@H](O)[C@H](C)O1 [Aldoxorubicin] | 2.2
CCc1cc2c(cc1N1CCC(N3CCOCC3)CC1)C(C)(C)c1[nH]c3cc(C#N)ccc3c1C2=O [Alectinib] | 0
COc1cc(Nc2ncc3c(n2)-c2ccc(Cl)cc2C(c2c(F)cccc2OC)=NC3)ccc1C(=O)O [Alisertib] | 0
Oc1ncnc2[nH]ncc12 [Allopurinol] | 0
Cc1nc(NC(=O)N2CCC[C@H]2C(N)=O)sc1-c1ccnc(C(C)(C)C(F)(F)F)c1 [Alpelisib] | 0
O=C(Nc1cc(Oc2cc(F)c(NC(=O)C3(C(=O)Nc4ccc(F)cc4)CC3)cc2F)ccn1)C1CC1 [Altiratinib] | 3
CN1CC[C@H](c2c(O)cc(O)c3c(=O)cc(-c4ccccc4Cl)oc23)[C@H](O)C1 [Alvocidib] | 12.1
CCN(CC)CCNC(=O)c1c(C)[nH]c(/C=C2\C(=O)Nc3ccc(-c4csc(-c5ccccc5)n4)cc32)c1C [Amcasertib] | 0.5
CCC1(c2ccc(N)cc2)CCC(=O)NC1=O (centres undefined) [Aminoglutethimide] | 0
COc1cc(NS(C)(=O)=O)ccc1Nc1c2ccccc2nc2ccccc12 [Amsacrine] | 1
S=C(NCc1ccc2c(c1)OCO2)N1CCN(c2ncnc3c2oc2ccccc23)CC1 [Amuvatinib] | 0
O=C1CN2Cc3c(ccc(Cl)c3Cl)N=C2N1 [Anagrelide] | 0
CC(C)(C#N)c1cc(Cn2cncn2)cc(C(C)(C)C#N)c1 [Anastrozole] | 0

— the supplement of paper PMC11616607
